Laboratory results from patent US20040152648A1, “Pyruvate-kinase as a novel target molecule” (priority 2001, published 2004).
Where a SMILES comes first, the peptide text is derived from it. [ ]: non-standard residue; d: D form. Nle = CCCC[C@H](N)C(=O)O

Key:
Assay type in all cases: cell-based
[1] = target: T1, pEGFP-PK-M2 (pyruvate-kinase fused to GFP) in Cos-7 cells (Homo sapiens, UniProt P14618); assay: nuclear translocation of GFP-fused pyruvate-kinase in transiently transfected Cos-7 cells; conditions: pEGFP-PK-M2, 1 mM hydrogen peroxide for 4 hours, FIG. 4
T1 construct: producing wild type pyruvate-kinase N-terminally fused to GFP; expressed in transfected cells; host or cells: Cos-7
Source text: Nuclear translocation of the pyruvate-kinase upon different apoptotic stimuli. Cos-7 cells were transiently transfected with pEGFP-PK-M2 eukaryotic expression plasmid (producing wild type pyruvate-kinase N-terminally fused to GFP)
Nuclear translocation of the pyruvate-kinase deletion mutants upon apoptotic stimuli. […] (Ex: 485 nm=GFP, Ex: 390=propidium-iodide)
Cells were fixed with 1% glutaraldehyde and the localisation of GFP was detected and analysed with fluorescent microscope and InoVision confocal imaging software. Nuclei were stained with propidium-iodine (FIG. 5).

[2] = tested on: endogenous PK-M2 in Cos-7 cells; assay: subcellular localisation of endogenous PK-M2, cytosolic/nuclear fractions, Western-blot; conditions: 50 μM TT-232 or 100 μM hydrogen-peroxide, FIG. 8
Procedure: Subcellular localisation of endogenous PK-M2 upon peroxide or UV stimulation. Cos-7 cells were untreated, treated with 50 μM TT-232 (A), 100 μM hydrogen-peroxide (B), or 120 mJ/cm^2 UV (C) and incubated for different times as indicated. Cells were separated into cytosolic (c) or nuclear (n) fractions loaded in triplicate and blotted with PK-M2 (uppest panels), Erk-2 (middle panels) or Histone H1 (lowest panels).
In order investigate further Cos-7 cells were treated, separated into cytosolic and nuclear fractions by NP-40 lysis and analysed with polyclonal PKM2 specific antibody (Weernink et al., 1988) for endogenous PK-M2 by Western-blots. To rule out cross contamination, samples were loaded in triplicate and blotted with PK-M2, Erk-2 or Histone H1 antibodies.

[3] = tested on: nuclear PK-M2 processing in Cos-7 cells; assay: protease inhibitor pre-treatment, electrophoretic mobility of nuclear PK-M2; conditions: Cos-7 cells pre-treated with protease inhibitor

T1 sequence (P14618 whole entry, the tested form may be a part): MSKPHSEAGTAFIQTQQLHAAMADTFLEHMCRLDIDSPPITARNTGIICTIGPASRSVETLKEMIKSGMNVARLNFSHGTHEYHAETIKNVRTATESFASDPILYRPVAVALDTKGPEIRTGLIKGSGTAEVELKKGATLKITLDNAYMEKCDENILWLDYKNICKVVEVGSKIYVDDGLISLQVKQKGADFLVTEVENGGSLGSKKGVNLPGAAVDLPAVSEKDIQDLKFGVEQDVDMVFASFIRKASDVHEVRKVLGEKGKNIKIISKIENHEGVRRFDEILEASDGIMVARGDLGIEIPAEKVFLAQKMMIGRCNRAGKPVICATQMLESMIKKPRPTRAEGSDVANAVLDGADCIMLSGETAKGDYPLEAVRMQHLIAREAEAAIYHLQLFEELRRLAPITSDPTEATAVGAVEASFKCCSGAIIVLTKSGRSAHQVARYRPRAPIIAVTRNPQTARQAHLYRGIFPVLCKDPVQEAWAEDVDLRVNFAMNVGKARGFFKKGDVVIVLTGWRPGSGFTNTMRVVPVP

Structure (SMILES) | nuclear translocation of GFP-fused pyruvate-kinase [1] | translocation of endogenous PK-M2 into the nucleus [2] | reversal of increased electrophoretic mobility of nuclear enzyme [3]
OO [hydrogen peroxide] | nuclear translocation of the pyruvate-kinase occurs | induced the translocation of the endogenous PK-M2 into the nucleus | –
NCCc1ccc(S(=O)(=O)F)cc1 [AEBSF] | – | – | not able to revert this effect
Cc1ccc(S(=O)(=O)N[C@@H](Cc2ccccc2)C(=O)CCl)cc1 [TPCK] | – | – | not able to revert this effect
CCCC[C@@H](C=O)NC(=O)[C@H](CC(C)C)NC(=O)[C@H](CC(C)C)NC(C)=O [ALLN] (Ac-Leu-Leu-[Nle]-aldehyde) | – | – | not able to revert this effect
